According to patent US12319913B2, “5-halouracil-modified microRNAs and their use in the treatment of cancer” (The Research Foundation for The State University of New York, priority 2018, dated 2025):
[5FU] = 5-fluorouracil base replacing uracil

Columns and labels:
AGS stomach cancer cells = assay: Cell proliferation, AGS; type: cell-based, human; conditions: compared to negative controls
Outline: (§1)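 Cells transfected with 100 nM control, modified or native miRNA (Oligofectamine) or with 100 pmol miRNA without reagent. Seeded at 2000 cells/well 24 h post-transfection; WST-1 read for 1 h on days 1 to 5 at 450 and 630 nm. Values are O.D. (450 minus 630 nm), from at least three experiments.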

[1] = system: acute lymphocytic leukemia cell line (REH); assay: Cell proliferation, REH; type: cell-based, human; conditions: compared to negative controls
A549 lung cancer cells = assay: Cell proliferation, A549; type: cell-based, human; conditions: for lung cancer cell proliferation: A549, compared to negative controls; for inhibition of cell proliferation: A549, compared to unmodified miR or negative controls
Outline: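 Cells were transfected with 100 nM control, modified or native miRNA via Oligofectamine, or reagent-free with 100 pmol miRNA, then reseeded 24 h later at 2000 cells/well. WST-1 was added for 1 h on days 1 to 5, and O.D. was taken as absorbance at 450 nm minus 630 nm.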

[2] = system: Hs766T pancreatic cancer cells; assay: Cell proliferation, Hs766T; type: cell-based, human; conditions: compared to negative controls
Outline: as §1

[3] = system: SKBR3 breast cancer cells; assay: Cell proliferation, SKBR3; type: cell-based, human; conditions: SKBR3, compared to negative controls
Outline: as §1

[4] = system: HCT116 colon cancer cells; assay: WST-1 cell proliferation assay, HCT116; type: cell-based, human; conditions: for inhibition of colon cancer cell proliferation: HCT116, in words, vs controls
Protocol: For transfections, […] (Thermo Fischer) following the manufacturer's protocols. For reagent free transfection, cells were plated in 6 well plates at (1×10^5) cells per well. Twenty-four hours later 100 pmol miRNA (Control, miR-15a, Mimic-1) were diluted in Optimem (Thermo Fischer) and added to the plate. Media was changed after 24 hours. Media was supplemented with 10% fetal bovine serum (Thermo Fischer). Briefly, cells were cultured in growth media (DMEM/F12 supplemented with B27, 10 ng/mL bFGF, and 20 ng/mL EGF (Life Technologies) in ultra-low attachment flasks) for up to 6 days. The spheroid cells were maintained by collection through gentle centrifugation, dissociation to single cells and replating.
Cell proliferation assay: Twenty-four hours after transfection, cells were seeded in 96-well plates at a density of 2000 cells per well. The cell proliferation assay was performed on days 1 to 5 by incubating 10 μl WST-1 (Roche Applied Science, Mannheim, Germany) in the culture medium for 1 h and reading the absorbance at 450 and 630 nm. The cell proliferation rate was calculated by subtracting the […]. Experiments for the cell proliferation assay were performed at least three times. The O.D. was calculated by subtracting the absorbance at 630 nm from that at 450 nm. Proliferation experiments were performed three times.

[5] = system: acute lymphocytic leukemia cell line (REH); assay: Cell proliferation, REH; type: cell-based, human; conditions: 50 nM, 25 nM, 12.5 nM, 6.25 nM, and 3.125 nM
colon cancer stem cells = assay: Anchorage-independent colony formation (soft agar); type: cell-based, human; conditions: soft agar / Matrigel matrix
Protocol: Anchorage-independent proliferation was studied to determine cancer cell colony forming ability. Cancer cells were trypsinized and counted and a total of 1×10^5 cells per well were transfected in 6-well plates with 25 nM modified microRNA or native miRs or a negative control miRNA with oligofectamine, and 6 hours after transfection, cells were recounted. A total of 20,000 cells in 0.35% agar (Bacto Agar; Becton Dickinson) were layered on top of 1 mL of a solidified 0.6% agar layer in a 35-mm dish. Growth media with B27, 10 ng/mL bFGF, and 20 ng/mL EGF were included in both layers. After 2 weeks of incubation, colonies more than […] in diameter were counted.

[6] = system: Panc-1 pancreatic cancer cells; assay: Cell proliferation, Panc-1; type: cell-based, human; conditions: for cell proliferation, dose dependence: PANC-1, 50 nM, 25 nM, 12.5 nM, 6.25 nM, and 3.125 nM
[7] = system: AsPC-1 pancreatic cancer cells; assay: Cell proliferation, AsPC-1; type: cell-based, human; conditions: for cell proliferation, dose dependence: APSC-1, 50 nM, 25 nM, 12.5 nM, 6.25 nM, and 3.125 nM
HCT-116 cells = assay: Cell cycle analysis by flow cytometry, colon cancer cells; type: cell-based, human
Protocol: Cell cycle analysis: Twenty-four hours after transfection, cells were harvested and resuspended at 0.5 to 1×10^6 cells/mL in modified Krishan's buffer supplemented with 0.02 mg/mL RNase H and 0.05 mg/mL propidium iodide. Stained cells were detected by flow cytometry and results were analyzed with Modfit LT™ software. The experiments for cell cycle analysis were performed at least three times.

SW620 colon cancer cells = assay: WST-1 cell proliferation assay, SW620; type: cell-based, human; conditions: SW620, in words, vs controls
Protocol: For transfections, 1×10^5 cells were plated in six-well plates and transfected with 100 nM of control non-specific miRNA (Thermo Fischer), a modified microRNA, or exogenous native microRNA after 24 hours using Oligofectamine (Thermo Fischer) following the manufacturer's protocols. For reagent free transfection, cells were plated in 6 well plates at (1×10^5) cells per well. Twenty-four hours later 100 pmol miRNA (Control, miR-15a, Mimic-1) were diluted in Optimem (Thermo Fischer) and added to the plate. Media was changed after 24 hours. Media was supplemented with 10% fetal bovine serum (Thermo Fischer). Briefly, cells were cultured in growth media (DMEM/F12 supplemented with B27, 10 ng/mL bFGF, and 20 ng/mL EGF (Life Technologies) in ultra-low attachment flasks) for up to 6 days. […]
Cell proliferation assay: Twenty-four hours after transfection, cells were seeded in 96-well plates at a density of 2000 cells per well. The cell proliferation assay was performed on days 1 to 5 by incubating 10 μl WST-1 (Roche Applied Science, Mannheim, Germany) in the culture medium for 1 h and reading the absorbance at 450 and 630 nm. The cell proliferation rate was calculated by subtracting the absorbance at 450 nm from the absorbance at 630 nm. […] The O.D. was calculated by subtracting the absorbance at 630 nm from that at 450 nm. […]

[8] = system: metastatic human colon cancer cells; assay: Colon cancer metastasis mouse model, intravenous miRNA delivery; type: in vivo; conditions: 40 μg intravenous, every other day for two weeks
Protocol: For in vivo miRNA delivery experiments, colon cancer cells were created that expressed the lenti-luc reporter gene by infecting parental HCT116 cells with a recombinant lentivirus. Luciferase-expressing HCT116 cells (2.0×10^6 cells per mouse) were suspended in 0.1 mL of PBS solution and was injected through tail vein of each mouse. Two weeks after injection of colon cancer cells, mice were treated via tail vein injection with 40 μg of negative control or modified miR(s) packaged with in vivo-jetPEI (Polyplus Transfection). Mice were treated every other day for 2 weeks (8 times). Following treatment, mice were screened using IVIS Spectrum In vivo Imaging System (IVIS) (PerkinElmer).

Substance	gastric cancer cell proliferation (AGS stomach cancer cells)	leukemia cancer cell proliferation [1]	lung cancer cell proliferation (A549 lung cancer cells)	inhibition of cell proliferation (A549 lung cancer cells)	pancreatic cancer cell proliferation [2]	breast cancer cell proliferation [3]	inhibition of colon cancer cell proliferation [4]	leukemia cancer cell proliferation, dose dependence [5]	colony / sphere formation (colon cancer stem cells)	cell proliferation, dose dependence [6]	cell proliferation, dose dependence [7]	inhibition of colon cancer cell proliferation (SW620 colon cancer cells)	colon cancer metastasis [8]	toxicity [8]	also measured
CU^FU^FU^FU^FU^FGCGGU^FCU^FGGGCU^FU^FGC (CUUUUUGCGGUCUGGGCUUGC; RNA, [5FU] at 2, 3, 4, 5, 6, 11, 13, 18, 19, backbone not given here) [modified miR-129]	inhibited	inhibited	inhibited	enhanced ability to inhibit	inhibited	inhibited	inhibition of colon cancer cell proliferation	inhibited in a dose dependent manner	formed no visible spheres	inhibited in a dose dependent manner	inhibited in a dose dependent manner	inhibition of colon cancer cell proliferation	inhibits colon cancer metastasis	did not exhibit any toxicity	HCT-116 tumor cell growth ([4]; 50 nM): suppress HCT-116 tumor cell growth completely; inhibitory effect on cell proliferation relative to native miR-129 ([4]; HCT-116, FIG. 3): much more potent than the native miR-129; G1 arrest, potency relative to native miR-129 (HCT-116 cells; HCT-116, flow cytometry): more than two-fold; toxicity ([8]; listed as modified microRNA-129): no toxic side effects
U^FAGCAGCACAU^FAAU^FGGU^FU^FU^FGU^FG (UAGCAGCACAUAAUGGUUUGUG; RNA, [5FU] at 1, 11, 14, 17, 18, 19, 21, backbone not given here) [modified miR-15a]	inhibited	inhibited	inhibited	enhanced ability to inhibit	inhibited	inhibited	enhanced ability to inhibit colon cancer cell proliferation	inhibited in a dose dependent manner	no colonies were observed	inhibited in a dose dependent manner	inhibited in a dose dependent manner	enhanced ability to inhibit colon cancer cell proliferation	inhibit colon cancer metastasis	did not exhibit any toxicity	decrease of cell proliferation compared to control ([4]; HCT-116, WST-1, six days after transfection): 84%; inhibition of cell proliferation ([6]; Panc-1, compared to unmodified miR or negative controls): enhanced ability to inhibit; inhibition of cell proliferation ([7]; AsPC-1, compared to unmodified miR or negative controls): enhanced ability to inhibit; increase in the G1/S ratio (HCT-116 cells; colon cancer cells, compared to the control): 7 fold
